The test concerns the target T1, human MRGPRX2 (Homo sapiens, UniProt Q96LB1).
T1 construct: expressed in transfected cells; host or cells: FlpIn TRex HEK293 (TRex-MRGPRX2-HEK), doxycycline-induced
T1 sequence (Q96LB1 1-330): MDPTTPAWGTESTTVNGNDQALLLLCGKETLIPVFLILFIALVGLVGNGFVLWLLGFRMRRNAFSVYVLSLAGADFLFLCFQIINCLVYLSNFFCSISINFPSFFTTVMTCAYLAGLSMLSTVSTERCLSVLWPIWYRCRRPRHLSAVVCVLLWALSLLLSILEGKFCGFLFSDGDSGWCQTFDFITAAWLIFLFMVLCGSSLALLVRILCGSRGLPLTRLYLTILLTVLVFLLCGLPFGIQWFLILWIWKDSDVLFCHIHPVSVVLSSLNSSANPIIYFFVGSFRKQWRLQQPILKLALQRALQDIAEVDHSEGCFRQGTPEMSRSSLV
Briefly: MRGPRX2 Activity Assay (IP-1 HTRF, antagonist mode). Format: cell-based. The settings on record: FlpIn TRex-MRGPRX2-HEK293 cells; versus 1 μM Cortistatin-14 agonist; 30 minutes preincubation. As to the method:
FlpIn TRex-MRGPRX2-HEK293 cells (herein TRex-MRPGRX2-HEK) stably transfected to express human MRGPRX2 were maintained at 37° C. with 5% CO2 and grown in DMEM supplemented with 10% FBS, 1% L-Glutamate, 1% penicillin/streptomycin, 100 ug/mL Hygromycin B, and 15 ug/mL Blasticidin.
GOI (MRGPRX2) expression was induced with 100 ng/mL of Doxycycline 18-24 hours prior to experiment, in flask. On the day of experiment, cells were lifted with TripLE Express and seeded in 384-well white walled opaque bottomed, assay plates, at 8,000 cells per well in 5 uL freshly made assay buffer (HBSS, 20 mM HEPES, 0.1% BSA and 10 mM LiCl). Compounds solubilized in 100% DMSO at 30 mM were serially diluted (1:4) first in 100% DMSO, and an intermediate plate of assay buffer was used to establish a final top concentration of 30 uM (in assay plate). Final DMSO concentration was kept constant at 1% across assay plates. […], at 30 mM stock concentration was solubilized in HBSS+0.1% BSA, stored at −20° C. in 5 μL aliquots and discarded after one freeze-thaw cycle. […].
Antagonist equilibrium was established with 30 minutes preincubation, followed by no wash, direct addition, and stimulation of agonist for 1 hour at 37° C./5% CO2. IP-1 standards and HTRF detection reagents were added according to the IP-one Gq kit protocol purchased from CisBio (part number 62IPAPEJ). The plate was read on an EnVision XCite plate reader. The HTRF ratio was then calculated from raw data (channel1/channel2×10,000) and analyzed using either GraphPad Prism or a custom Python script to calculate IC50 using Log[Antagonist] vs. response (4 parameter) nonlinear regression.
For orientation: Time-resolved FRET reads energy transfer from a long-lived donor to a nearby acceptor.

Take “(R)-2-((S)-4,4-difluoro-3-(6-oxo-1,6-dihydropyridin-3-yl)piperidin-1-yl)-N-(1-(3,5-difluorobenzyl)-1H-imidazol-4-yl)propanamide [Compound 79]”: the concentration for half-maximal inhibition (IC50) (in general, the concentration that gives 50% inhibition) stood at 18100 nM. With `C[C@@H](C(=O)Nc1cn(Cc2ccc(Cl)cc2F)cn1)N1CCC(F)(F)[C@@H](c2cc[n+]([O-])cc2)C1` [Compound 31, 4-((S)-1-((S)-1-((1-(4-chloro-2-fluorobenzyl)-1H-imidazol-4-yl)amino)-1-oxopropan-2-yl)-4,4-difluoropiperidin-3-yl)pyridine 1-oxide], the IC50 stood at 361 nM.

Molecule `C[C@H](C(=O)Nc1cn(Cc2cc(F)cc(F)c2)c(Cl)n1)N1CCC(F)(F)[C@@H](c2cc[n+]([O-])cc2)C1` (single isomer, unassigned) [Compound 81] showed a half-maximal inhibitory concentration (IC50) above 30000 nM.

With `C[C@@H](C(=O)Nc1cc2n(n1)CC[C@@H]2c1cc(F)cc(F)c1)N1CCC(F)(F)[C@@H](c2cc[n+]([O-])cc2)C1` (single isomer, unassigned) [Compound 549], the IC50 was 439 nM. For `C[C@@H](C(=O)Nc1cn(Cc2cc(F)c(F)cc2F)cn1)N1CCC(F)(F)[C@@H](c2cc[n+]([O-])cc2)C1` [Compound 65, 4-((S)-4,4-difluoro-1-((S)-1-oxo-1-((1-(2,4,5-trifluorobenzyl)-1H-imidazol-4-yl)amino)propan-2-yl)piperidin-3-yl)pyridine 1-oxide], the IC50 was determined as 504 nM. In the case of `C[C@@H](C(=O)Nc1cn2c(n1)CC[C@@H]2c1cc(F)cc(F)c1)N1CCC(F)(F)[C@@H](c2cc[n+]([O-])c(CO)c2)C1` (single isomer, unassigned) [Compound 525] it was 5480 nM; in that of `C[C@@H](C(=O)Nc1coc(Cc2cc(F)cc(F)c2)n1)N1CCC(F)(F)[C@@H](c2cc[n+]([O-])cc2)C1` (single isomer, unassigned) [Compound 27], 587 nM; in that of `C[C@@H](C(=O)Nc1cn2c(n1)[C@H](O)C[C@@H]2c1cc(F)cc(F)c1)N1CCC(F)(F)[C@@H](c2ccc(=O)[nH]c2)C1` (single isomer, unassigned) [Compound 515], 4600 nM. In the case of `C[C@H](C(=O)Nc1cn([C@@H](C)c2cc(F)cc(F)c2)cn1)N1CCC(F)(F)[C@@H](c2cc[n+]([O-])cc2)C1` (single isomer, unassigned) [Compound 13] it was 233 nM. Turning to `C[C@@H](C(=O)Nc1cn(Cc2cc(F)ccc2F)cn1)N1CCC(F)(F)[C@@H](c2cc[n+]([O-])cc2)C1` [Compound 40, 4-((S)-1-((S)-1-((1-(2,5-difluorobenzyl)-1H-imidazol-4-yl)amino)-1-oxopropan-2-yl)-4,4-difluoropiperidin-3-yl)pyridine 1-oxide], the IC50 is 25 nM.

Molecule `C[C@H](C(=O)Nc1cn([C@H](C)c2cc(F)cc(F)c2)cn1)N1CCC(F)(F)[C@@H](c2cc[n+]([O-])cc2)C1` (single isomer, unassigned) [Compound 16] came in with an IC50 above 10000 nM. The figure for `C[C@@H](C(=O)Nc1cn(Cc2cc(F)ccc2C(F)(F)F)cn1)N1CCC(F)(F)[C@@H](c2cc[n+]([O-])cc2)C1` [Compound 62, 4-((S)-4,4-difluoro-1-((S)-1-((1-(5-fluoro-2-(trifluoromethyl)benzyl)-1H-imidazol-4-yl)amino)-1-oxopropan-2-yl)piperidin-3-yl)pyridine 1-oxide] is 267 nM; for `C[C@@H](C(=O)Nc1cn2c(n1)CC[C@@H]2c1cc(F)cc(F)c1)N1CCC2(CC2)[C@@H](c2cc[n+]([O-])cc2)C1` (single isomer, unassigned) [Compound 521] it is 4750 nM. In the case of `C[C@H](C(=O)Nc1cn(Cc2ccc(F)cc2F)cn1)N1CCC(F)(F)[C@H](c2cc[n+]([O-])cc2)C1` (single isomer, unassigned) [Compound 4] it was above 10000 nM. The figure for `Cc1nc(NC(=O)[C@@H](C)N2CCC(F)(F)[C@@H](c3cc[n+]([O-])cc3)C2)cn1Cc1ccc(F)cc1F` (single isomer, unassigned) [Compound 10] is 1610 nM. `C[C@@H](C(=O)Nc1cn2c(n1)CC[C@@H]2c1cc(F)cc(F)c1)N1CCC(F)(F)[C@@](C)(c2cc[n+]([O-])cc2)C1` (single isomer, unassigned) [Compound 519]: the half-maximal inhibitory concentration (IC50) was above 30000 nM. For the molecule `[2H]C([2H])(c1cc(F)cc(F)c1)n1cnc(NC(=O)[C@H](C)N2CCC(F)(F)[C@@H](c3cc[n+]([O-])cc3)C2)c1` [Compound 52, 4-((S)-1-((S)-1-((1-((3,5-difluorophenyl)methyl-d2)-1H-imidazol-4-yl)amino)-1-oxopropan-2-yl)-4,4-difluoropiperidin-3-yl)pyridine 1-oxide], the IC50 stood at 22 nM. The figure for `C[C@@H](C(=O)Nc1cn2c(n1)CC[C@@H]2c1cc(F)cc(F)c1)N1CCC(F)(F)[C@@H](c2c[nH]c(=O)c(CO)c2)C1` (single isomer, unassigned) [Compound 523] is above 30000 nM; for `C[C@@H](C(=O)Nc1cn2c(n1)CC[C@@H]2c1cc(F)cc(F)c1)N1CCOCC1` (single isomer, unassigned) [Compound 511] it is above 30000 nM; for `C[C@@H](C(=O)Nc1cn(Cc2ccc(F)c(F)c2F)cn1)N1CCC(F)(F)[C@@H](c2cc[n+]([O-])cc2)C1` [Compound 42, 4-((S)-4,4-difluoro-1-((S)-1-oxo-1-((1-(2,3,4-trifluorobenzyl)-1H-imidazol-4-yl)amino)propan-2-yl)piperidin-3-yl)pyridine 1-oxide] it is 169 nM.

For `C[C@@H](C(=O)Nc1cn(Cc2cc(F)cc(F)c2)c(C(F)F)n1)N1CCC(F)(F)[C@@H](c2cc[n+]([O-])cc2)C1` (single isomer, unassigned) [Compound 82], the IC50 came out at 1170 nM. The figure for `C[C@H](C(=O)Nc1cn(Cc2ccc(F)cc2F)c(C(F)(F)F)n1)N1CCC(F)(F)[C@@H](c2cc[n+]([O-])cc2)C1` (single isomer, unassigned) [Compound 8] is 9290 nM; for `C[C@@H](C(=O)Nc1cn(Cc2cc(F)cc(F)c2)cn1)N1CCC(F)(F)[C@H](c2ccc(=O)n(C)c2)C1` (single isomer, unassigned) [Compound 69] it is above 30000 nM; for `C[C@@H](C(=O)Nc1cn(Cc2ccccc2F)cn1)N1CCC(F)(F)[C@@H](c2cc[n+]([O-])cc2)C1` [Compound 37, 4-((S)-4,4-difluoro-1-((S)-1-((1-(2-fluorobenzyl)-1H-imidazol-4-yl)amino)-1-oxopropan-2-yl)piperidin-3-yl)pyridine 1-oxide] it is 54 nM. In the case of `C[C@@H](C(=O)Nc1cn(Cc2cc(F)cc(F)c2)cn1)N1CCC(F)(F)[C@@H](c2cc[n+]([O-])cc2)C1` (single isomer, unassigned) [Compound 6] it was 1780 nM. The figure for `C[C@@H](C(=O)Nc1cn(-c2cc(F)cc(F)c2)cn1)N1CCC(F)(F)[C@@H](c2cc[n+]([O-])cc2)C1` [Compound 75, 4-((S)-1-((S)-1-((1-(3,5-difluorophenyl)-1H-imidazol-4-yl)amino)-1-oxopropan-2-yl)-4,4-difluoropiperidin-3-yl)pyridine 1-oxide] is 513 nM. In turn, `C[C@@H](C(=O)Nc1cn(Cc2cc(Cl)cc(Cl)c2)cn1)N1CCC(F)(F)[C@@H](c2cc[n+]([O-])cc2)C1` [Compound 50, 4-((S)-1-((S)-1-((1-(3,5-dichlorobenzyl)-1H-imidazol-4-yl)amino)-1-oxopropan-2-yl)-4,4-difluoropiperidin-3-yl)pyridine 1-oxide] returned an IC50 of 45 nM. The figure for `C[C@@H](C(=O)Nc1cn(Cc2cccc(Cl)c2)cn1)N1CCC(F)(F)[C@@H](c2cc[n+]([O-])cc2)C1` [Compound 43, 4-((S)-1-((S)-1-((1-(3-chlorobenzyl)-1H-imidazol-4-yl)amino)-1-oxopropan-2-yl)-4,4-difluoropiperidin-3-yl)pyridine 1-oxide] is 131 nM. In turn, `C[C@@H](C(=O)Nc1cn2c(n1)CC[C@@H]2c1cc(F)cc(F)c1)N1CCC(F)(F)[C@H](c2c[nH]c(=O)cn2)C1` (single isomer, unassigned) [Compound 528] had an IC50 of 6.8 nM. In the case of `C[C@H](C(=O)Nc1cn2c(n1)CC[C@@H]2c1cc(F)cc(F)c1)N1CCC(F)(F)[C@@H](c2cc[n+]([O-])cc2)C1` (single isomer, unassigned) [Compound 488] it was 8810 nM.

(Values after US20250122171A1, “Substituted Amine Compounds, Compositions and Methods of Use” (Deep Apple Therapeutics, Inc., priority 2023, published 2025).)
